Assay results from patent US5039665A, “Use of fructose-1,6-diphosphate for treating myocardial infarction” (priority 1990, dated 1991).
“And” between values parts separate entries of the source, which are not always exact repeats. Equal values may be shown once.

What was measured:
[1] = system: hearts of mongrel dogs subjected to normothermic arrest; experiment: global ischemia on cardiopulmonary bypass, normothermic arrest for one hour; assay type: in vivo, dog
Experimental: To evaluate the effect of FDP on global ischemia, 14 mongrel dogs were placed on cardiopulmonary bypass and their hearts were subjected to normothermic arrest for one hour. Seven animals had 50 ml. of 5% glucose in 0.9% NaCl infused into the base of the aorta at 0 minutes, 20 minutes and 40 minutes following cross-clamping and, systemically, during reperfusion. The remaining 7 animals were treated identically except that 50 mg. of FDP was given instead of glucose and 2mg/kg/minute was infused systemically during reperfusion. Hemodynamic measurements were taken before ischemia and at 15 and 30 minutes following reperfusion using an isovolumetric technique.

[2] = system: dogs anesthetized with Surital; experiment: analeptic effect of intra-carotid administration on Surital (thiamylal) anesthesia in dogs; assay type: in vivo, dog
Experimental: In this paired test 10 dogs were anesthetized with Surital 35mg/kg IV. Within 10 minutes after induction of anesthesia, a #7 Sones catheter was placed in a common carotid artery via the femoral artery under fluoroscopic guidance. […] Immediately following the contrast media injection the infusion of FDP or glucose was initiated (9-13 min. after induction of anesthesia). The FDP was prepared as a 5% solution and infused at a constant rate of 1.91 ml/min. (97.5 mg/min.) into a main carotid artery. The controls received equal amounts of 5% dextrose via the same route. The analeptic effect of FDP on signs, stages and depth of anesthesia was evaluated by determining the time required for reappearance of eyelid reflex, opening of eyes, deglutiton, response to pain, lifting of the head, sitting, and when the animal was able to walk.

[3] = system: fluid deprived dogs after endotoxin; experiment: endotoxin shock in fluid deprived dogs (1 mg/kg endotoxin); assay type: in vivo, dog; conditions: no fluid given; three pairs
Source text: In three pairs no fluid was given except for the FDP and glucose.

[4] = system: dogs subjected to endotoxin shock; experiment: endotoxin shock in dogs (E. coli endotoxin) with fluid support; assay type: in vivo, dog; conditions: dog, in vivo
Experimental: The study was also conducted to determine whether IV administration of FDP to dogs subjected to lethal doses of endotoxin will prevent damage to the intestinal mucosa, and death. The rationale was that endotoxin per se and its deleterious effect on hemolate phase acidosis inhibits glycolysis by inactivation of the rate limiting enzyme phosphofructokinase.
Endotoxin shock was produced in digs by IV injection of E. coli endotoxin. Survival of control animals which received glucose and volume replacement was 18%d while for those treated with FDP it was 90%.
FIG. 5 is a diagram showing the intestinal fluid loss and urine output of dogs subjected to endotoxin shock. Seven dogs were treated with equimolar FDP and eight received glucose. All animals received fluid supportive therapy (150 ml. of Rheomacrodex and 300 cc. of Lactate Ringer).
Seven were treated with FDP and the controls (8) received equimolar glucose.

[5] = system: dogs subjected to toxic doses of Digoxin; experiment: digoxin toxicity in dogs; assay type: in vivo, dog
Experimental: Dogs subjected to toxic doses of Digoxin were treated with FDP and glucose. […] Also the dogs treated with FDP survived, while the controls treated with Dextrose 5% died within 3 hours after administration of Digoxin. In this paired study 10 anesthesized dogs received 3 mg. IV Digoxin as bolus injection. Five of the digs received 20 minutes after the digoxin injection 1 gm. of FDP and then on 2 mg/kg as a constant infusion for the next 3 hours. The five controls received in the same manner Dextrose 5%. […] (Pi<0.001.).

whole blood = experiment: blood preservation: ATP content of refrigerated blood; parameters: species or system dog
Experimental: Blood specimens taken from a number of dogs were mixed with FDP in the following proportions: F1-25mg of FDP per 10ml of blood and F2-50mg of FDP per 10ml of blood. The same proportion was prepared with glucose: G1-25mg of glucose per 10ml of blood and G2-50mg of glucose per 10ml of blood. The blood specimens were refrigerated for 24 hours and then the blood was tested for ATP content after 24 hours 14 days.

human WBC = experiment: carbohydrate metabolism of human white blood cells in vitro; assay type: cell-based; conditions: incubated at 37° Celsius
Experimental: The tests were also conducted to investigate the effect of FDP on white blood cells (WBC) on metabolism in vitro. […] It was experimentally assessed whether FDP can stimulate the carbohydrate metabolism of these cells at rest. A similar phenomenon observed for normal human erythrocytes, sickle cells and dog erythrocytes. From healthy humans and dogs, the white blood cells were separated and incubated at 37° Celsius for various periods of time with FDP, glucose and normal saline. At the end of incubation, ATP and intermediates of the glycolytic pathway were assessed. […] The pyruvic acid concentration in dog WBC incubated with FDP was 10 times greater than those incubated in glucose while those for the human WBC, this difference was of much lesser degree (X2). The dihydroxyacetone (DHA) in the human and canine WBC was 5 to 10 times greater in the FDP incubated than in the glucose ones.

blood = blood preservation: ATP content of refrigerated blood, 25, 50 and 100 mg per 10 ml; parameters: species or system dog
Experimental: The tests were also conducted under the conditions when 25mg, 50mg, and 100mg of FDP were mixed with 10ml of blood and 25mg, 50mg, and 100mg, of glucose were mixed with 10ml of blood. […]

[6] = time after beginning of infusion, individual dogs

SMILES: O=C[C@H](O)[C@@H](O)[C@H](O)[C@H](O)CO [glucose, reference compound]
- ML to LVEDP of 20 mmHg ([1]; 15 minutes after reperfusion): 23.3 ± 1.8 mL
- Peak Effective pressure ([1]; 15 minutes after reperfusion): 36.9 ± 4.4 mmHg
- Peak Mean pressure ([1]; 15 minutes after reperfusion): 17.8 ± 4.2 mmHg
- Peak dp/dt ([1]; 15 minutes after reperfusion): 1126 ± 216 mmHg/sec
- ML to LVEDP of 20 mmHg ([1]; 30 minutes after reperfusion): 19.3 ± 1.3 mL
- Peak Effective pressure ([1]; 30 minutes after reperfusion): 50.8 ± 6.3 mmHg
- Peak Mean pressure ([1]; 30 minutes after reperfusion): 20.5 ± 2.9 mmHg
- Peak dp/dt ([1]; 30 minutes after reperfusion): 1698 ± 350 mmHg/sec
- ML to LVEDP of 20 mmHg ([1]; Pre-Ischemia): 51.4 ± 8.6 mL
- Peak Effective pressure ([1]; Pre-Ischemia): 144.6 ± 14.6 mmHg
- Peak Mean pressure ([1]; Pre-Ischemia): 66.4 ± 7.4 mmHg
- Peak dp/dt ([1]; Pre-Ischemia): 4894 ± 689 mmHg/sec
- time required for return of observable eyelid reflex ([2]; after beginning the infusion into the carotid artery (±SDM)): 70.00 ± 25 min
- time required to regain walking ability ([2]; mean, p<0.001 FDP vs dextrose): 295.00 ± 24.49 min
- Able To Sit [2, 6]: 300 min and 225 min and 310 min and 215 min
- Able To Walk [2, 6]: 310 min and 300 min and 330 min and 280 min and 265 min
- Eyes Open [2, 6]: 80 min and 75 min and 105 min and 54 min and 40 min
- Lifts Head [2, 6]: 170 min and 135 min and 190 min and 165 min and 120 min
- Response To Pain [2, 6]: 120 min and 130 min and 160 min and 125 min and 100 min
- time to death [3]: 21/2
- blood in the fluid lost from the intestine [4]: In all controls there was blood in the fluid lost from the intestine
- survival [4]: 18%
- time to death ([5]; after administration of Digoxin): ≤ 3 h
- hemodynamic parameters (cardiac output, arterial pressure) ([5]; dog, in vivo): decline in arterial pressure, vomiting, and perfused diarrhea
- ATP (whole blood; 25mg per 10ml of blood, 24 hours): 0.22 m mole/ml
- ATP (whole blood; 25mg per 10ml of blood, 48 hours): 0.32 m mole/ml
- ATP (whole blood; 25mg per 10ml of blood, 7 days, Incubate 30' 37°): 0.28 m mole/ml
- ATP (whole blood; 25mg per 10ml of blood, 9 days): 0.26 m mole/ml
- ATP (whole blood; 50mg per 10ml of blood, 24 hours): 0.44 m mole/ml
- ATP (whole blood; 50mg per 10ml of blood, 48 hours): 0.34 m mole/ml
- ATP (whole blood; 50mg per 10ml of blood, 7 days, Incubate 30' 37°): 0.18 m mole/ml
- ATP (whole blood; 50mg per 10ml of blood, 9 days): 0.40 m mole/ml
- ATP (whole blood; 14 days, Incubate 40' 37°): 0.88 m mole/ml
- ATP (whole blood; 14 days, No incubation): 0.40 m mole/ml
- ATP content (human WBC): 1.28±0.21 m.mole/#WBC
- ATP (blood; 25 mg with 10ml of blood, 24 hours): 0.475 m mole/ml
- ATP (blood; 25 mg with 10ml of blood, 48 hours): 0.475 m mole/ml
- ATP (blood; 50 mg with 10ml of blood, 24 hours): 0.375 m mole/ml
- ATP (blood; 50 mg with 10ml of blood, 48 hours): 0.450 m mole/ml
- ATP (blood; 100 mg with 10ml of blood, 24 hours): 0.250 m mole/ml
- ATP (blood; 100 mg with 10ml of blood, 48 hours): 0.426 m mole/ml
